Measurements as given in patent US12226374B2, “Compositions comprising quinone and/or quinol and methods of preparations and use thereof” (American River Nutrition, LLC, priority 2019, dated 2025).

Key:
Type in all cases: physicochemical
[1] = Stability of CoQ10 at elevated temperatures in CoQ:AP:GG mixture (HPLC)
Protocol: (§1) The weight ratios of CoQone to CoQnol in the mixture were determined by HPLC using a modified method disclosed by Mattila (Mattila et al., 2000), which is incorporated by reference in its entirety. Samples were extracted from the mixing vessel under inert gas flush and the mixing vessel was then flushed with inert gas prior to resealing. Samples were dissolved in chloroform and then analyzed on a Waters Symmetry C18 column (5 μm, 4.6×250 mm) at about 35° C. The mobile phase (1.8 mL/min) was methanol:ethanol:2-propanol (53:25:22) with UV detection at 275 nm for CoQone and 290 nm for CoQnol. The retention times were about 5.7 min for CoQnol and about 8.8 min for CoQone, respectively. The HPLC method described herein was utilized in subsequent examples.
GG was added to an appropriately sized mixing vessel and heated to about 52° C. (±3°) while stirring. CoQone was added to the mixing vessel with GG to form a mixture. The mixture was stirred at about 52° C. (±3°) until CoQone was completely melted and solubilized in GG to attain a translucent solution. Then AP was added to the translucent solution, which was stirred until no visible dry AP was left on the surface. […] This mixture was then mixed at elevated temperature for 10 days with periodic flushing of neutral, non-oxygenated gas where the CoQnol conversion rate and the total amount of CoQ (both CoQnol and CoQone) were monitored.

[2] = CoQone solubilized in GG as binary mixture: dissolution and degradation; settings: CoQone about 25% / GG about 75%
Protocol: as §1
GG was added to an appropriately sized mixing vessel and heated to about 52° C. (±3°) while stirring. CoQone was added to the mixing vessel with GG to form a mixture. The mixture was stirred at about 52° C. (±3°) until CoQone was completely melted and solubilized in GG to attain a translucent solution. The mixing vessel was then flushed with a neutral, non-oxygenated gas until atmospheric air was displaced and the mixing vessel was sealed airtight. This mixture was then mixed for several days.

[3] = CoQone mixed directly with AP (binary mixture) at elevated temperature: total CoQ degradation; settings: about 75° C., about 3 days
Protocol: as §1
CoQone was added to an appropriately sized mixing vessel and melted at about 52° C. (±3°) while stirring. AP was added to the mixing vessel with CoQone to form a mixture. The mixture was gently stirred at about 52° C. (±3°) until no apparent dry AP was visible. The mixing vessel was then flushed with a neutral, non-oxygenated gas until atmospheric air was displaced and the mixing vessel was sealed airtight. This mixture was then mixed at elevated temperature for several days with periodic flushing of inert gas with the CoQone to CoQnol conversion rate being monitored.

[4] = Headspace comparison of inert gases (nitrogen vs argon): total CoQ10 loss; settings: CoQ10:AP:GG about 4:2:4, about 52° C., about 6-7 days
Protocol: as §1
CoQ10, AP, and GG are provided in the weight ratio of about 4:2:4. The three components were placed in a mixing vessel kept stirred at about 52° C. (±3°). The mixing vessel was flushed with a neutral, non-oxygenated gas until atmospheric air was displaced entirely by Nitrogen […] or Argon (Ar) and sealed airtight. This mixture was then stirred at elevated temperatures for about 6-7 days until the target CoQnol conversion rate was reached.

[5] = Manufacture production batch (20 kg) and softgels: total CoQ loss and stability; settings: 20 kg CoQone:AP:GG batch, argon, about 52° C., about six days
Protocol: A manufacture batch was run according the preparation methods set forth in Example 1 with the following modifications. The total amount of CoQone:AP:GG mixtures was 20 kg. Argon was used to flush the mixing vessel until the atmospheric air was displaced. After the mixing vessel was sealed air-tight, this mixture of CoQone:AP:GG was then stirred at about 52° C. (±2°) for about six days with periodic flushing of Argon for about every 24 hours.
The final composition in the sealed vessel was placed in a hopper for the encapsulation process in a softgel assembly line. The finished softgels were analyzed to determine that the weight percentage of CoQnol in total amount of CoQnol and CoQone is about 93%. […] Softgels are hermetically sealed and the contents within the softgels are expected to be stable for at least about 2 years.

In the case of `COC1=C(OC)C(=O)C(C/C=C(\C)CC/C=C(\C)CC/C=C(\C)CC/C=C(\C)CC/C=C(\C)CC/C=C(\C)CC/C=C(\C)CC/C=C(\C)CC/C=C(\C)CCC=C(C)C)=C(C)C1=O` [CoQ10], the “loss of total CoQ10” value ([1]; about 3-5 days at about 50-55° C., initial ratio CoQ:AP:GG 1:1:1) is reported as “less than 5%”, the “loss of total CoQ (both CoQone and CoQnol)” value ([1]; about 8-10 days at about 50-55° C., fixed initial ratio CoQ:AP:GG about 1:1:1, inert gas with periodic flushing) is reported as “about 15%” and the “dissolution of CoQ10 in GG” value ([2]; about 52° C.) is reported as “completely dissolved”. For the same compound, the “degradation of CoQ” value ([2]; after about 3 weeks, inert gas) was “nor was there any degradation”, the “total CoQ10 degraded” value [3] was “about 21%” and the “total loss of CoQ10” value ([4]; argon-filled headspace) was “less than 0.5%”. The “total CoQ10 loss” value ([4]; nitrogen-filled headspace) was “about 7%” and the “loss of the total CoQ” value [5] was “without any measurable loss”.
